Test results from patent publication US8071786B2, “Indole compounds useful as serotonin selective agents” (Galenea Corp., priority 2005, dated 2011).
Marks after values point to notes of the source that are not given here.

Assays:
[1] = system: itch-associated scratching induced by serotonin; assay: Animal model for OCD: serotonin-induced scratching; format: in vivo, male Swiss-Webster mice; details: for Number of Scratches as Percentage of Control: inducer Serotonin
Protocol: The 5-HT action is at least partly mediated by 5-HT2 receptors in the skin, as shown by blocking with specific antagonists (Yamaguchi, T., Nagasawa, T., Satoh, M., Kuraishi, Y. “Itch-associated Response Induced by Intradermal Serotonin Through 5-HT2 Receptors in Mice” Neurosci. Res. 1999, 35, 77). The effect of test compounds on itch-associated scratching in the mice may indicate their action on 5-HT receptors, and a study was carried out as an animal model for OCD. The subjects were male Swiss-Webster mice, 4-6 weeks old, weighing 25-45 g. Mice were housed 5 per cage, given free access to standard mouse food and water except during experiments, and maintained in a temperature-controlled room (70° F.). Serotonin and all test drugs were made up with ascorbic acid to protect against oxidation. Two mice, one a control, the other experimental, were tested each time. Each mouse was separately placed into a plexiglas box.
Mice were injected subcutaneously between the shoulder blades with either 0.1 ml of serotonin, 0.4 mg per ml in 0.15 M saline plus ascorbic acid, 1 mg/ml, or compound 48-80 (the copolymer product of N-methyl-p-methoxyphenethylamine with formaldehyde), 1.0 mg/ml in saline plus ascorbic acid. Test compounds were injected i.p. 5 minutes before the inducer. The cumulative number of scratches with a hind leg was recorded at 5 minute intervals for 30 minutes. One saline injected control and one test animal were tested together in each assay.

[2] = Appetite suppression in mice, chronic assay (body weight); format: in vivo
Protocol: Mice were injected i.p. at intervals of 2 or 3 days and weighed repeatedly (6 or 7 total injections). Controls were injected with saline. Weighing and injection were carried out between 11 AM and 1 PM.

[3] = Appetite suppression in mice, acute assay (food consumption); format: in vivo; details: for Mean food consumption 60 min. after injection: g (±SEM) Compound / Mean food consumption 90 min. after injection: g (±SEM) Compound: mice deprived of food 18 hours
Protocol: Mice were deprived of food, but not water, for 18 hours. They were then injected i.p. with test compounds dissolved in 0.9% NaCl containing 1 mg per ml ascorbic acid for protection against oxidation. Each mouse was placed in an individual cage for 30 minutes and then presented with a small petri dish containing a gel made from gelatin, powdered milk and sucrose. The dish was weighed at zero time and at 15-minute intervals for the next hour in order to quantitate food consumption. Controls were injected with saline-ascorbic acid; ±fenfluramine was used as an active control. Control consumption generally ranged from 1.5 to 2.0 grams.

human 5-HT2C-INI = molecular target: T1, human 5-HT2C-INI (Homo sapiens, UniProt P28335); assay: Phosphoinositide hydrolysis functional assay; format: cell-based; details: for Functional Assay (EC50) 5-HT2C / EC50: activation of phosphoinositide hydrolysis, stably expressed receptor; for Emax: value in brackets, read-out: percent Vmax relative to serotonin at 100%, 5-HT2C (converted)
T1 construct: expressed in transfected cells
T1 sequence (P28335 33-458): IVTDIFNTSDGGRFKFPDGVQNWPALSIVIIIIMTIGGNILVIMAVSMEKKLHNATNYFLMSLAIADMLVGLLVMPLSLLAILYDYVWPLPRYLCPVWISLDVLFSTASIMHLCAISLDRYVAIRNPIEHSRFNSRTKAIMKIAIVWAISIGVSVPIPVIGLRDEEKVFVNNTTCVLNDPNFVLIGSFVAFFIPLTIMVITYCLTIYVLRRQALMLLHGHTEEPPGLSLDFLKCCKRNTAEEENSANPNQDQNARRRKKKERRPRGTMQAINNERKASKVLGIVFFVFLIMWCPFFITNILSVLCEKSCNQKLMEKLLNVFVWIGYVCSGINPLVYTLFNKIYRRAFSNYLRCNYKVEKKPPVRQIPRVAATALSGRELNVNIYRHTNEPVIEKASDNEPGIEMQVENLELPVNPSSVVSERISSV
Protocol: (§1) Phosphoinositide hydrolysis assays were performed with stably (5-HT2A, 5-HT2C) or transiently (5-HT2B) expressed receptors plated in 24-well culture plates. Transfected cells were loaded with […] overnight in inositol-free DMEM without serum. The next day, phosphate accumulation assays were performed in a modified Krebs-bicarbonate buffer. Kact (nmol/L) and percent Vmax (relative to 5-HT) values were calculated (Roth, B. L., Shoham, M., Choudhary, M., Khan, N. “Identification of Conserved Aromatic Residues Essential for Agonist Binding and Second Messenger Production at 5-Hydroxytryptamine 2A Receptors” Mol. Pharmacol. 1997, 52, 259; Roth, B. L., Choudhary, M., Khan, N., Uluer, A. “High-affinity Agonist Binding is not Sufficient for Agonist Efficacy at 5-Hydroxytryptamine 2A Receptors: Evidence in Favor of a Modified Ternary Complex Model” J. Pharmacol. Exp. Ther. 1997, 280, 576).
(§2) Functional Assay (EC50) in nM. Data represent mean EC50 values for activation of phospho-inositide hydrolysis in cells expressing human 5-HT2A, 5-HT2B or 5-HT2C-INI receptors, relative to serotonin at 100%. When the standard deviation is given, N≧3.

5-HT2A = 5-HT2A (Homo sapiens, UniProt P28223); assay: Phosphoinositide hydrolysis functional assay; format: cell-based; design: expressed in transfected cells; details: for Functional Assay (EC50) 5-HT2A / EC50: activation of phosphoinositide hydrolysis, stably expressed receptor; for percent Vmax relative to serotonin at 100%, 5-HT2A: value in brackets
5-HT2A, sequence (P28223 whole entry): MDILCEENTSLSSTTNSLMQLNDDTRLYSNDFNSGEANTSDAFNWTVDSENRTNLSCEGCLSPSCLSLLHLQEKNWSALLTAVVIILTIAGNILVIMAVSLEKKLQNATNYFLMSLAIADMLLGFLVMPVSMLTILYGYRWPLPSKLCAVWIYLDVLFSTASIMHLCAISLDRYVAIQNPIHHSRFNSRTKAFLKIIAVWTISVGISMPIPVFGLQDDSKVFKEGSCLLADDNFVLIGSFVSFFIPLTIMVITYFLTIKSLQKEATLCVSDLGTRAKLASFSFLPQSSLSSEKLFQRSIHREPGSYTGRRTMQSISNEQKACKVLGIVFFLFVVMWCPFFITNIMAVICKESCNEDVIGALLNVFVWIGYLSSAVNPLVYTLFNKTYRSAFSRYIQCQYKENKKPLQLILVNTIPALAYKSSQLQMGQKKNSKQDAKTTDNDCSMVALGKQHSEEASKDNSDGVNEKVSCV
Protocol: as §1, §2

5-HT2B = 5-HT2B (Homo sapiens, UniProt P41595); assay: Phosphoinositide hydrolysis functional assay; format: cell-based; design: expressed in transfected cells; details: activation of phosphoinositide hydrolysis, transiently expressed receptor
5-HT2B, sequence (P41595 whole entry): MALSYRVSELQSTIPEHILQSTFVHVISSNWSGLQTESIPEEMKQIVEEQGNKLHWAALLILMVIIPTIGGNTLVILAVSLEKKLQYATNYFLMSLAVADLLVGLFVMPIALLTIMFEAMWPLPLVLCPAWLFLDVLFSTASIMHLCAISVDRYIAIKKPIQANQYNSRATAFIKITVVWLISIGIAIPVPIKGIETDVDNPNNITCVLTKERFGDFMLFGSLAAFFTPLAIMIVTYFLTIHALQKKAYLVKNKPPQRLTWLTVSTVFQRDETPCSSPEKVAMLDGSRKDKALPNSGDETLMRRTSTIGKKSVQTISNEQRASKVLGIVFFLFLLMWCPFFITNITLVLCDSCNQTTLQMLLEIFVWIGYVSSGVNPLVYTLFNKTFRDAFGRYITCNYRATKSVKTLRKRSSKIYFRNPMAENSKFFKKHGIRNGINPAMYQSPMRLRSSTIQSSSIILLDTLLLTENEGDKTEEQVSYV
Protocol: as §1, §2

[4] = 10 mg/kg i.p. 5 minutes before inducer Serotonin
[5] = dose cell empty (10 mg/kg printed on the Saline line above), i.p. at intervals of 2 or 3 days
[6] = 20 mg/kg i.p. at intervals of 2 or 3 days

CN(C)CCc1cn(S(C)(=O)=O)c2cc(F)cc(O)c12
melting point: 184 to 186 °C

CN(C)CCc1cn(S(C)(=O)=O)c2c(F)ccc(O)c12
melting point: 181 to 183 °C

CC(C)n1cc(CCN(C)C)c2c(O)ccc(F)c21
melting point: 108 to 110 °C

CCNC(C)Cc1cccc(C(F)(F)F)c1 (centres unmarked) [+/−Fenfluramine, Fenfluramine, reference compound]
Average Number of Scratches 30 min. after injection [1, 4]: 12.8* | Number of Scratches as Percentage of Control ([1]; 10 mg/kg i.p.): 6.5% | Day 7 % Δ from starting weight [2, 5]: −9.54* % | Day 7 Difference within same group [2, 5]: -4.74 g | Day 14 % Δ from starting weight [2, 5]: −10.7* % | Day 14 Difference within same group [2, 5]: -5.32 g | % of Control (food consumption 60 min. after injection) ([3]; 3 mg/kg i.p.): 95% | % of Control (food consumption 90 min. after injection) ([3]; 3 mg/kg i.p.): 95% | Mean food consumption 60 min. after injection: g (±SEM) Compound ([3]; 3 mg/kg i.p.): 1.2 (.12) g | Mean food consumption 90 min. after injection: g (±SEM) Compound ([3]; 3 mg/kg i.p.): 1.60 (.14) g | % of Control (food consumption 60 min. after injection) ([3]; 5 mg/kg i.p.): 61% | % of Control (food consumption 90 min. after injection) ([3]; 5 mg/kg i.p.): 67% | Mean food consumption 60 min. after injection: g (±SEM) Compound ([3]; 5 mg/kg i.p.): 0.90 (.04)* g | Mean food consumption 90 min. after injection: g (±SEM) Compound ([3]; 5 mg/kg i.p.): 1.18 (.17)* g | % of Control (food consumption 60 min. after injection) ([3]; 10 mg/kg i.p.): 30% | % of Control (food consumption 90 min. after injection) ([3]; 10 mg/kg i.p.): 35% | Mean food consumption 60 min. after injection: g (±SEM) Compound ([3]; 10 mg/kg i.p.): 0.41 (.11)* g | Mean food consumption 90 min. after injection: g (±SEM) Compound ([3]; 10 mg/kg i.p.): 0.56 (.13)* g

CCCCn1cc(CCN(C)C)c2c(O)ccc(F)c21 [Compound O-4205, 3-(2-Dimethylaminoethyl)-7-fluoro-1-butyl-1H-indol-4-ol]
Functional Assay (EC50) 5-HT2C (human 5-HT2C-INI): inactive | melting point: 87 to 90 °C | Functional Assay (EC50) 5-HT2A (5-HT2A): Inactive | Functional Assay (EC50) 5-HT2B (5-HT2B): Inactive

CN(C)CCc1cn(C)c2cc(F)cc(O)c12 [Compound O-4244, 3-(2-Dimethylaminoethyl)-6-fluoro-1-methyl-1H-indol-4-ol]
EC50 (human 5-HT2C-INI): 0.66 nM | Emax (human 5-HT2C-INI): 75% | melting point: 132 to 134 °C | EC50 (5-HT2A): 0.55 nM | percent Vmax relative to serotonin at 100%, 5-HT2A (5-HT2A): 61% | Functional Assay (EC50) 5-HT2B (5-HT2B): Inactive

CCn1cc(CCN(C)C)c2c(O)cc(F)cc21 [Compound O-4284, 3-(2-Dimethylaminoethyl)-6-fluoro-1-ethyl-1H-indol-4-ol]
EC50 (human 5-HT2C-INI): 0.54 nM | Emax (human 5-HT2C-INI): 73% | EC50 (5-HT2A): 2.9 nM | percent Vmax relative to serotonin at 100%, 5-HT2A (5-HT2A): 73% | Functional Assay (EC50) 5-HT2B (5-HT2B): Inactive

CCCn1cc(CCN(C)C)c2c(O)cc(F)cc21 [Compound O-4285, 3-(2-Dimethylaminoethyl)-6-fluoro-1-propyl-1H-indol-4-ol]
EC50 (human 5-HT2C-INI): 131 nM | Emax (human 5-HT2C-INI): ~75% | melting point: 104 to 106 °C | EC50 (5-HT2A): 166 nM | percent Vmax relative to serotonin at 100%, 5-HT2A (5-HT2A): 63% | Functional Assay (EC50) 5-HT2B (5-HT2B): Inactive

CCCCn1cc(CCN(C)C)c2c(O)cc(F)cc21 [Compound O-4286, 3-(2-Dimethylaminoethyl)-6-fluoro-1-butyl-1H-indol-4-ol]
Functional Assay (EC50) 5-HT2C (human 5-HT2C-INI): inactive | melting point: 92 to 95 °C | Functional Assay (EC50) 5-HT2A (5-HT2A): Inactive | Functional Assay (EC50) 5-HT2B (5-HT2B): Inactive

CN(C)CCc1cn(CC2CC2)c2cc(F)cc(O)c12 [Compound O-4287, 3-(2-Dimethylaminoethyl)-6-fluoro-1-cyclopropylmethyl-1H-indol-4-ol]
EC50 (human 5-HT2C-INI): 1160 nM | Emax (human 5-HT2C-INI): 41% | melting point: 110 to 112 °C | EC50 (5-HT2A): 3740 nM | percent Vmax relative to serotonin at 100%, 5-HT2A (5-HT2A): 63% | Functional Assay (EC50) 5-HT2B (5-HT2B): Inactive

CCCn1cc(CCN(C)C)c2c(OP(=O)(O)O)ccc(F)c21 [Compound O-4309, 3-(2-Dimethylaminoethyl)-7-fluoro-1-propyl-1H-indol-4-phosphate]
Average Number of Scratches 30 min. after injection ([1]; 2.5 mg/kg i.p. 5 minutes before inducer Serotonin): 181.4 | Number of Scratches as Percentage of Control ([1]; 2.5 mg/kg i.p.): 97.4% | Average Number of Scratches 30 min. after injection ([1]; 5 mg/kg i.p. 5 minutes before inducer Serotonin): 89.6 | Number of Scratches as Percentage of Control ([1]; 5 mg/kg i.p.): 17.8% | Average Number of Scratches 30 min. after injection [1, 4]: 8.8 | Number of Scratches as Percentage of Control ([1]; 10 mg/kg i.p.): 1.6% | Day 7 % Δ from starting weight [2, 6]: −2.3* % | Day 7 Difference within same group [2, 6]: -1.20 g | Day 14 % Δ from starting weight [2, 6]: −6.03* % | Day 14 Difference within same group [2, 6]: -3.20 g | % of Control (food consumption 60 min. after injection) ([3]; 10 mg/kg i.p.): 41% | % of Control (food consumption 90 min. after injection) ([3]; 10 mg/kg i.p.): 64% | Mean food consumption 60 min. after injection: g (±SEM) Compound ([3]; 10 mg/kg i.p.): 0.28 (.06)* g | Mean food consumption 90 min. after injection: g (±SEM) Compound ([3]; 10 mg/kg i.p.): 0.68 (0.1)* g | % of Control (food consumption 60 min. after injection) ([3]; 20 mg/kg i.p.): 9% | % of Control (food consumption 90 min. after injection) ([3]; 20 mg/kg i.p.): 18% | Mean food consumption 60 min. after injection: g (±SEM) Compound ([3]; 20 mg/kg i.p.): .07 (.02)* g | Mean food consumption 90 min. after injection: g (±SEM) Compound ([3]; 20 mg/kg i.p.): 0.22 (.05)* g

CC(C)n1cc(CCN(C)C)c2c(O)cc(F)cc21 [Compound O-4310, 3-(2-Dimethylaminoethyl)-6-fluoro-1-isopropyl-1H-indol-4-ol]
EC50 (human 5-HT2C-INI): 592 nM | Emax (human 5-HT2C-INI): ~50% | EC50 (5-HT2A): 5 nM | percent Vmax relative to serotonin at 100%, 5-HT2A (5-HT2A): 89% | Functional Assay (EC50) 5-HT2B (5-HT2B): Inactive

CCS(=O)(=O)n1cc(CCN(C)C)c2c(O)cc(F)cc21 [Compound O-4312, 3-(2-Dimethylaminoethyl)-6-fluoro-1-ethylsulfonyl-1H-indol-4-ol]
Functional Assay (EC50) 5-HT2C (human 5-HT2C-INI): inactive | Functional Assay (EC50) 5-HT2A (5-HT2A): inactive | Functional Assay (EC50) 5-HT2B (5-HT2B): Inactive

CNCCC(Oc1ccc(C(F)(F)F)cc1)c1ccccc1 (centres unmarked) [Fluoxetine, reference compound]
Average Number of Scratches 30 min. after injection [1, 4]: 15 | Number of Scratches as Percentage of Control ([1]; 10 mg/kg i.p.): 4.1%
